For the assay, the system named is CHEAL. Briefly: Greenhouse herbicidal test, post-emergence treatment. It counts as in vivo, Chenopodium album. Particulars: post-emergence method, application rate 0.25 kg/ha; scale from 0 to 100. The text has this: The seeds of the test plants were shown separately for each species. For the post-emergence treatment, the test plants were first grown to a height of 3 to 15 cm, depending on the plant habit, and only then treated with the active ingredients which had been suspended or emulsified in water. For this purpose, the test plants were either shown directly and grown in the same containers, or they were first grown separately as seedlings and transplanted into the test containers a few days prior to treatment. Depending on the species, the plants were kept at 10-25° C. or 20-35° C. The test period extended over 2 to 4 weeks. During this time, the plants were tended, and their response to the individual treatments was evaluated. Evaluation was carried out using a scale from 0 to 100. 100 means no emergence of the plants, or complete destruction of at least the aerial moieties, and 0 means no damage, or normal course of growth. A good herbicidal activity is given at values of at least 70 and a very good herbicidal activity is given at values of at least 85. The plants used in the greenhouse experiments belonged to the following species: [table]

Regarding `Cc1nonc1NC(=O)c1c(Cl)cc(Cl)cc1Cl` [I′.A-2, 2,4,6-trichloro-N-(4-methyl-1,2,5-oxadiazol-3-yl)benzamide], the “herbicidal activity against CHEAL” value is recorded as “very good (a very good herbicidal activity is given at values of at least 85)”.

The record behind these values is patent US20140323306A1, “Substituted 1,2,5-Oxadiazole Compounds and Their Use as Herbicides” (BASF SE, priority 2011, published 2014).
